Key:
[1] = test system: A549 cells; assay: MTT assay using MTX-Me2 and MTX-(PhiPr)2; assay type: cell-based; settings: highest concentration (10 μM), 24 hours
Description: Next, we modified the two carboxylates in methotrexate (a potent anticancer and immunosuppressive drug) to afford the methyl (MTX-Me2) or Ph^iPr (MTX-(Ph^iPr)2) ester variants (FIG. 2b). A549 cells were cultured and treated with MTX-Me2 or MTX-(Ph^iPr)2 at various concentrations for 24 hours before they were subjected to MTT analyses. […] Statistical analysis for FIG. 3b, FIG. 3c and FIG. 3d was performed using a two-tailed t-test (α=0.05, **** P<0.001)
48-well plates were seeded with 30,000 A549 cells per well (500 μL of 60,000 cells/mL) and incubated at 37° C. with 5% CO2 for 24 hours. Media was removed and fresh serum-free RPMI 1640 containing […] of MTX-Me2 or MTX-(PriPr)2 were added (0.1% DMSO final v/v). The media was removed after 24 hours incubation and replaced with 500 μL of a 20:1 mixture of serum-free RPMI 1640 and (3-(4,5-dimethylthiazol2-yl)-2,5-diphenyl-tetrazolium bromide (MTT, 5 mg/mL stock in PBS). The cells were incubated for 2 hours under the same condition and then the medium was removed and replaced with DMSO (500 μL/well). The absorbance of each well was recorded at 555 nm on a microplate reader. Viability was calculated by the absorbance relative to the vehicle control.

[2] = test system: 4T1-Luc cells; assay: Ester stability in live 4T1-Luc cells, BL imaging; assay type: cell-based, murine; settings: 10 μM
Description: First, we prepared BL660-Me, a methyl ester derivative of BL660 as shown in FIG. 2a for comparison to the benzyl ester (4) of FIG. 1a. Next, we cultured 4T1 murine breast cancer cells, stably expressing the luciferase enzyme (4T1-Luc). The cells were then treated with a DMSO (dimethyl sulfoxide) vehicle control, BL660-Me or Compound (4) (FIG. 3a and FIG. 10a, b, c respectively?). Imaging was performed using the IVIS In Vivo Imaging System.
4T1-Luc cell was cultured in phenol red-free RPMI 1640 (ATCC) with 10% fetal bovine serum (FBS, Sigma Aldrich), and 1% penicillin/streptomycin (Corning).
Evaluation of BL660-Me and 4 in 4T1-Luc Cells. 4T1-Luc cells (180K) were seeded into 24-well plates and incubated for 24 hours. The cells were ˜85% confluent. The media was removed and replaced with serum-free RPMI 1640. An initial background scan was recorded on an IVIS imaging system in open mode where no filters were applied. Cells were then treated with DMSO (2.5 μL, 0.5%), BL660-Me, or compound 4 in DMSO (10 μM final concentration). After 30 minutes incubation at 37° C., bioluminescence was collected. ROIs were drawn around each well. The total luminescence count for each well for a given condition was averaged. The signal intensity was quantified using the Living Image Analysis Software.

[3] = Hydrolytic stability of BL660 esters in PBS, luciferase BL readout; assay type: physicochemical; settings: for rate of hydrolysis: 10 μM, PBS pH 7.4, 37° C., 1, 6 and 12 hours
Description: We began our analysis of stability by incubating BL660 esters of Compound (1), Compound (2), and Compound (3) at 37° C. in PBS (phosphate-buffered saline) (pH 7.4). After 1, 6, and 12 hours, luciferase was added (10mU, 37° C., pH 7.4) to initiate BL production. The rate of hydrolysis, reported as total luminescence counts per hour, indicates hydrolysis in descending order is: Compound (1) (13.9±1.4×10^3); Compound (2) (3.3±0.6×10^3), and Compound (3) (1.0±0.1×10^3) (FIG. 1b, wherein the esters are indicated on the horizontal axis) and FIG. 8 (wherein the respective timeline plots are identified beneath the horizontal axis as (1), (2), etc.). Luminescent counts were recorded using an IVIS In Vivo Imaging System. […] Without wishing to be bound by any theory, we speculate hydrolysis of (3) may involve an SN1 mechanism, thus favoring formation of a double benzylic carbocation.

[4] = test system: porcine liver esterase; assay: Esterase reactivity: treatment with porcine liver esterase, BL readout; assay type: in vitro ADME; settings: 10 μM, porcine liver esterase 0.1 units/mL, 37° C., pH 7.4, 20, 40 and 60 minutes
Description: The enzymatic rates, reported as total luminescence counts per minute, in descending order are: Compound (1) (31.0±6.8×10^2), (3) (9.5±1.2×10^2), and (2) (0.6±0.1×10^2) (FIG. 1c and FIG. 9). The greater stability imparted by the aromatic ring is not surprising since esterase reactivity can be readily attenuated with bulkier substituents.

Work on `CC(C)C(OC(=O)CCC(NC(=O)c1ccc(N(C)Cc2cnc3nc(N)nc(N)c3n2)cc1)C(=O)OC(c1ccccc1)C(C)C)c1ccccc1` (mixture of isomers) [MTX-(Ph^iPr)2] yielded a viability [1] of 100%.
For `CCN(CC)c1ccc(C=CC=CC2=NC(C(=O)OC)CS2)cc1` (stereo not drawn) [BL660-Me], the “luminescence relative to Compound (4)” value ([2]; 30 mins) was 31 fold, the “luminescence relative to the vehicle” value ([2]; 30 mins) was 55 fold and the total luminescence count ([2]; 30 mins at 37° C.) was 94.1±5.9×10^3 total luminescence count.
With `CCN(CC)c1ccc(C=CC=CC2=NC(C(=O)OCc3ccccc3)CS2)cc1` (stereo not drawn) [Compound (1)] the rate of hydrolysis [3] was 13.9±1.4×10^3 total luminescence counts per hour and the enzymatic rate [4] was 31.0±6.8×10^2 total luminescence counts per minute.
For `CCN(CC)c1ccc(C=CC=CC2=NC(C(=O)OC(c3ccccc3)c3ccccc3)CS2)cc1` (stereo not drawn) [Compound (2)], the rate of hydrolysis [3] was 3.3±0.6×10^3 total luminescence counts per hour and the enzymatic rate [4] was 0.6±0.1×10^2 total luminescence counts per minute.
In the case of `CCN(CC)c1ccc(C=CC=CC2=NC(C(=O)OC(C)c3ccccc3)CS2)cc1` (stereo not drawn) [Compound (3)], the rate of hydrolysis [3] is reported as 1.0±0.1×10^3 total luminescence counts per hour, the “effectiveness at blocking hydrolysis, methyl substituent of (3) versus phenyl group of (2)” value ([3]; PBS pH 7.4, 37° C.) is reported as “over three-fold more effective at blocking hydrolysis” and the enzymatic rate [4] is reported as 9.5±1.2×10^2 total luminescence counts per minute.
For `COC(=O)CCC(NC(=O)c1ccc(N(C)Cc2cnc3nc(N)nc(N)c3n2)cc1)C(=O)OC` (stereo not drawn) [MTX-Me2, reference compound], the viability [1] was ~63%.

— patent US20240158359A1, “HYDROLYSIS-RESISTANT ESTERS FOR DRUG AND IMAGING AGENT DELIVERY” (The Board of Trustees of the University of lllinois, priority 2022, published 2024)
